Here are results for six molecules from ChEMBL document CHEMBL5465560, “Selectivity Literature for EUbOPEN Chemogenomic Library” (2024).

A word on the pIC50: it is the IC50 on a negative log10 scale, so that one unit is a factor of ten. A low value points to a large IC50.

pIC50: −log10 of the molar value.

Test [1] has as its target T1, Inhibitor of nuclear factor kappa-B kinase subunit alpha (Homo sapiens) (UniProt O15111).
T1 sequence (whole entry): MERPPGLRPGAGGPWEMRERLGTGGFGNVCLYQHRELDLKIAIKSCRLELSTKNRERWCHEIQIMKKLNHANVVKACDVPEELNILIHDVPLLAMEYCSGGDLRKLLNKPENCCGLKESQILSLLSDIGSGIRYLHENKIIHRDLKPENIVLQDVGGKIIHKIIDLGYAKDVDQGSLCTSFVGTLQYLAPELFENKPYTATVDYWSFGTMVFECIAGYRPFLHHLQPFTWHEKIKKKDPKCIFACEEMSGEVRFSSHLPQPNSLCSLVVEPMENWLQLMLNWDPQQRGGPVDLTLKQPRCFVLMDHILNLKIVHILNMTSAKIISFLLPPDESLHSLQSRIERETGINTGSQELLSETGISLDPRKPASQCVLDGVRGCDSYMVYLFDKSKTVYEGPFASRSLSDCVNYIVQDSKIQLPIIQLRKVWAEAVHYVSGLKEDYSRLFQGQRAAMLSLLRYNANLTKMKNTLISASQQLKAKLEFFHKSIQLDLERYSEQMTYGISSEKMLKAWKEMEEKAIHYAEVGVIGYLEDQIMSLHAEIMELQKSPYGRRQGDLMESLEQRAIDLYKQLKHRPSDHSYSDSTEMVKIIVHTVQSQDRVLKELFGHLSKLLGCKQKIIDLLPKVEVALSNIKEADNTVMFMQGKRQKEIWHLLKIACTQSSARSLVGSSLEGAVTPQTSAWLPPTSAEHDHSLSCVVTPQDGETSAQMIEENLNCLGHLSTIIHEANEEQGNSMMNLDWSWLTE
The experiment in a line: Selectivity interaction (ProQinase) EUB0000171b CHUK.

For test [2], the target named is Fibroblast growth factor receptor 3 (Homo sapiens, UniProt P22607). Description: Selectivity interaction (Kinase panel (Invitrogen)) EUB0000639a FGFR3. The settings on record: at 200 nM.
The target of test [3] is Eukaryotic elongation factor 2 kinase (Homo sapiens, UniProt O00418).
Test [4] concerns the target High affinity nerve growth factor receptor (Homo sapiens, UniProt P04629). Description: Selectivity interaction (KinomeScan (DiscoverX)) EUB0000229b NTRK1. The settings on record: at 10 µM.
The target in test [5] is T2, Protein kinase C epsilon type (Homo sapiens) (UniProt Q02156).
T2 sequence (whole entry): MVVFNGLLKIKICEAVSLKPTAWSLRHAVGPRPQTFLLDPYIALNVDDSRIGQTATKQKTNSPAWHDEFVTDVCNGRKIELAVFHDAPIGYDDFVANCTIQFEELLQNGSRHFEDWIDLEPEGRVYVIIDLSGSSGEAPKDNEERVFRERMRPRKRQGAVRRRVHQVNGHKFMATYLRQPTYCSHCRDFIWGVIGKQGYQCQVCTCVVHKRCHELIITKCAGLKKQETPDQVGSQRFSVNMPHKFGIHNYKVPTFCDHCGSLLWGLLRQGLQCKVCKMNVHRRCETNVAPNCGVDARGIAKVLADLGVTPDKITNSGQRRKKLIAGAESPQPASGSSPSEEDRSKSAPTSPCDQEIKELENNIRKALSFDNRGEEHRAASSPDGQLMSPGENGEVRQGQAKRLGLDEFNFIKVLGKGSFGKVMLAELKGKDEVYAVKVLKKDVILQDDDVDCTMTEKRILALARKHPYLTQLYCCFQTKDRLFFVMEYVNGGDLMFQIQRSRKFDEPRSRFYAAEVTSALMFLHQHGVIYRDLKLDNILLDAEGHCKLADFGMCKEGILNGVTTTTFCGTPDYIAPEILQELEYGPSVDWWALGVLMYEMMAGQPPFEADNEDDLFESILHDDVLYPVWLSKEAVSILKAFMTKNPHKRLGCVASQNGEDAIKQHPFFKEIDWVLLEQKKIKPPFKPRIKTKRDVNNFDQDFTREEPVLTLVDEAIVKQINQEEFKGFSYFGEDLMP
Description: Selectivity interaction (KinomeScan (DiscoverX)) EUB0000311b PRKCE. The settings on record: at 1 µM.

Test [6] addresses T3, Mitogen-activated protein kinase kinase kinase 15 (Homo sapiens) (UniProt Q6ZN16).
T3 sequence (whole entry): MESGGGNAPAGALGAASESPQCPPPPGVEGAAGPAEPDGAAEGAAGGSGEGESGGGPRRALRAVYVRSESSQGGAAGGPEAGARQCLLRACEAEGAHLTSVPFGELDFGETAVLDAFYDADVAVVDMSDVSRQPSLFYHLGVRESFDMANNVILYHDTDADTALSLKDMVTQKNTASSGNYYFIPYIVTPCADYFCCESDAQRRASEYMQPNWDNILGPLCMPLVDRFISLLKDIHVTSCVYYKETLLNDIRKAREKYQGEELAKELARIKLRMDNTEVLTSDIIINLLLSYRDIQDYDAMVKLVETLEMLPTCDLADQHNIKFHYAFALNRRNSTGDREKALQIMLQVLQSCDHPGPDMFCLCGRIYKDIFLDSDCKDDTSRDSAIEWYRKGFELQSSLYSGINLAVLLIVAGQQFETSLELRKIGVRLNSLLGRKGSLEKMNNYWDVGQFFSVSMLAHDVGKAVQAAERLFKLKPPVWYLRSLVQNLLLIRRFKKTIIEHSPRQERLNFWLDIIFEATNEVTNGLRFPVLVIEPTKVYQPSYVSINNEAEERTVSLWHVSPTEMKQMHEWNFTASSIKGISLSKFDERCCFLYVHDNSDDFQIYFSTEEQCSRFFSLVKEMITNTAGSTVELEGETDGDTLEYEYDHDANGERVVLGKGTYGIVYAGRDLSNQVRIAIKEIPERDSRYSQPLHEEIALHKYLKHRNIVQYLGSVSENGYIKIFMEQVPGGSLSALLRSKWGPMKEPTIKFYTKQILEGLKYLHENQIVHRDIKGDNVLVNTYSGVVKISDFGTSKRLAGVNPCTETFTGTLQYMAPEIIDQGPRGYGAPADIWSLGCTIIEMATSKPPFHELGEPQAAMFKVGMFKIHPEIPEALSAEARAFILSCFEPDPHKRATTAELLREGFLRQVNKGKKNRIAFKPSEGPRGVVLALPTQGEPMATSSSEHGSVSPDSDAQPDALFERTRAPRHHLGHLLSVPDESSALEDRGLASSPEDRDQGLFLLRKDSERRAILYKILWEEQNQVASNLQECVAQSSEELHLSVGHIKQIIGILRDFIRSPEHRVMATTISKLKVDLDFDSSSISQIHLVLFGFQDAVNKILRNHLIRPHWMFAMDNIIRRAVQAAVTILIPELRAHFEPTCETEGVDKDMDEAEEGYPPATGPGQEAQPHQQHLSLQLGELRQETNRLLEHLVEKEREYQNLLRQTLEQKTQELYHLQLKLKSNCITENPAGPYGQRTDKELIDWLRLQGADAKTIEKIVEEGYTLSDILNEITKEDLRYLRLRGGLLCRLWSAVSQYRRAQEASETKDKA
The experiment in a line: Selectivity interaction (KinomeScan (DiscoverX)) EUB0001619a MAP3K15. The settings on record: at 1 µM.

Sequence of Fibroblast growth factor receptor 3 (P22607 23-806 limits assumed): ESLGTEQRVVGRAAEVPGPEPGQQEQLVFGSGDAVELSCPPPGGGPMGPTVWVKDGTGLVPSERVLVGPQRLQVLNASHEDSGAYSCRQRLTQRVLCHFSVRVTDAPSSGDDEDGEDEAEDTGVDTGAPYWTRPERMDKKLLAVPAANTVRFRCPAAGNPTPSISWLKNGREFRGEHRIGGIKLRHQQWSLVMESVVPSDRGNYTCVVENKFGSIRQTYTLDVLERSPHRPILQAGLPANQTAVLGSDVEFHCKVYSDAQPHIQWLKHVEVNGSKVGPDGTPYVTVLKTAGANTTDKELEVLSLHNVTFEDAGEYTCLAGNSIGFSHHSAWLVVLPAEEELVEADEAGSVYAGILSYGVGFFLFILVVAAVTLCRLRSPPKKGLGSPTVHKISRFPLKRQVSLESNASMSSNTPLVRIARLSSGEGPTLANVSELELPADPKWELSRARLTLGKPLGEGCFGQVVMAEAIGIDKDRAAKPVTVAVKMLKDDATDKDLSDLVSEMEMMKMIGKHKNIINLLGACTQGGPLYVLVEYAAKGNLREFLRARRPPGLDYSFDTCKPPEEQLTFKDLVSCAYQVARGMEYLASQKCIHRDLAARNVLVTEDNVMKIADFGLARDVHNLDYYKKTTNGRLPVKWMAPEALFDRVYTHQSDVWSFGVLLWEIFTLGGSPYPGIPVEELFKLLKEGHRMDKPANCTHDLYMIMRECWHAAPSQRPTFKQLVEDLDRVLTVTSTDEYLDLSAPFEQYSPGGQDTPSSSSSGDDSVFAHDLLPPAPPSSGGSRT
Sequence of Eukaryotic elongation factor 2 kinase (O00418 whole entry): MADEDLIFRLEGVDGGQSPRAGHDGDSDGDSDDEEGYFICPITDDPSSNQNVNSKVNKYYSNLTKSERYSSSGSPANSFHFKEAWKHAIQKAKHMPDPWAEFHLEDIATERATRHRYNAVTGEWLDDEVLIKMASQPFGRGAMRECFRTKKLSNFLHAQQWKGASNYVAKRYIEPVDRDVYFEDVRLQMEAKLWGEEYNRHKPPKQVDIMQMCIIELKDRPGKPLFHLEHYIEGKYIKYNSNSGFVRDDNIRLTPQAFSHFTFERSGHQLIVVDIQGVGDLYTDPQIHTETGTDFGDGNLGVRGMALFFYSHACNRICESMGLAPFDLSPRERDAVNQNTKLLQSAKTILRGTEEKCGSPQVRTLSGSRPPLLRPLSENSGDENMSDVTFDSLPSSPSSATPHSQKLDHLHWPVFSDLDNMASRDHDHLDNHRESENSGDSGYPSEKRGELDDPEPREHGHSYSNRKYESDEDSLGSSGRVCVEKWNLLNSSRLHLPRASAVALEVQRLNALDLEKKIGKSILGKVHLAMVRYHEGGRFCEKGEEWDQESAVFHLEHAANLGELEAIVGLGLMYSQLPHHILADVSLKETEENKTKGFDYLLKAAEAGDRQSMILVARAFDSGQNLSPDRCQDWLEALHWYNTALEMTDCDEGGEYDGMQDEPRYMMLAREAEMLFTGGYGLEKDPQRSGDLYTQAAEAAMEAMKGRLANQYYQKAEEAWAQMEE
Sequence of High affinity nerve growth factor receptor (P04629 33-796 limits assumed): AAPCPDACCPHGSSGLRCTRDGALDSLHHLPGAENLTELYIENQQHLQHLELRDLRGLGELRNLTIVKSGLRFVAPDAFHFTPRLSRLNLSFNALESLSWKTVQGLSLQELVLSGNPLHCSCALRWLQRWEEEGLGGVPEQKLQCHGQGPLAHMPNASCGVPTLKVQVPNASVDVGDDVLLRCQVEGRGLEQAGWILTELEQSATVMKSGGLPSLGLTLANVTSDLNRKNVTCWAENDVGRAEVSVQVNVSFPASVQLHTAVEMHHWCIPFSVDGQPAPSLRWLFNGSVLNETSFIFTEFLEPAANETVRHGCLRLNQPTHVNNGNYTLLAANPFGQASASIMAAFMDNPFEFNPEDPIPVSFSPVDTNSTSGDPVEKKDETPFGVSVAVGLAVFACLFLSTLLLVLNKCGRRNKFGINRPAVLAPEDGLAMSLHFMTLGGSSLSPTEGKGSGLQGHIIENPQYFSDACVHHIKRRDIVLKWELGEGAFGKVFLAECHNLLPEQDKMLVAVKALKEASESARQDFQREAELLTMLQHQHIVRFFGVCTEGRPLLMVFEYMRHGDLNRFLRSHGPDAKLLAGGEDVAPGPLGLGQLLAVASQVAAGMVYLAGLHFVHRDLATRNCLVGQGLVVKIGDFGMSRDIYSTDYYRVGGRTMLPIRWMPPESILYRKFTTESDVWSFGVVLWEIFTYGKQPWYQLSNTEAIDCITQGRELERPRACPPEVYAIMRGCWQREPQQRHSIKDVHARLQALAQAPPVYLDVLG

As to `C=CC(=O)Nc1cccc(C(=O)Nc2ccc(Nc3cc(-c4[nH]c(SC)nc4C)ccn3)cc2)c1`, the figures for the % of control in test [1] (at 1 µM) and in test [1] (at 5 µM) were 78% and 57%, respectively.

`CC[C@@H]1[C@H](F)C(=O)N[C@@H]1COc1nccc2cc(C(N)=O)c(OC)cc12` [ZIMLOVISERTIB] registered a % of inhibition in test [2] of 2.45%.

As to `CCc1cccc(CC)c1NC(=O)c1nn(C)c2c1CCc1cnc(Nc3ccc(C(=O)NC4CCN(C)CC4)cc3OC(F)(F)F)nc1-2`, the pIC50 in test [3] was less than 5.00.

As for `COc1cc(N(C)c2ccnc3ccc(C(F)(F)F)cc23)cc(OC)c1OC`, the % binding in test [4] was determined as 96%.

On to `CCc1ccccc1C(=O)Nc1n[nH]c2c(C)c(F)c(C3C(C#N)=C(C)N(C)C(C)=C3C#N)cc12` [BAY-3827], for which the % of control in test [5] came to 19%.

In test [6], `N#Cc1cccc(-c2c[nH]c3ncnc(N4CCOCC4)c23)c1` showed a % of control of 74%.
